From patent publication US11771709B2, “ALK protein degradation agent and anti-tumor application thereof” (ShanghaiTech University, priority 2017, dated 2023)

Tests used:
[1] = system: SR (NPM-ALK) cells; test: Growth inhibition IC50 in ALCL SR cells (CCK8/WST, 72 hours); assay type: cell-based; settings: 72 h, SR cells, WST; Brigatinib-based PROTAD molecules (Table 3)
[2] = target: T1, ALK protein in H3122 (EML4-ALK) cells (Homo sapiens, UniProt Q9UM73); test: Western blot of ALK protein level (degradation, DC50), ALK phosphorylation and downstream signaling in H3122 cells; assay type: cell-based; settings: ALK protein degradation in H3122 cells
T1 construct: EML4 (Echinoderm microtubule-associated protein-like 4, Q9HC35) fusion partner, variant 1; host or cells: NCI-H3122 lung adenocarcinoma cells; the other entry of the earlier key: EML4 (Q9HC35, Echinoderm microtubule-associated protein-like 4)
T1 sequence (Q9UM73 with tags, fused parts or gaps): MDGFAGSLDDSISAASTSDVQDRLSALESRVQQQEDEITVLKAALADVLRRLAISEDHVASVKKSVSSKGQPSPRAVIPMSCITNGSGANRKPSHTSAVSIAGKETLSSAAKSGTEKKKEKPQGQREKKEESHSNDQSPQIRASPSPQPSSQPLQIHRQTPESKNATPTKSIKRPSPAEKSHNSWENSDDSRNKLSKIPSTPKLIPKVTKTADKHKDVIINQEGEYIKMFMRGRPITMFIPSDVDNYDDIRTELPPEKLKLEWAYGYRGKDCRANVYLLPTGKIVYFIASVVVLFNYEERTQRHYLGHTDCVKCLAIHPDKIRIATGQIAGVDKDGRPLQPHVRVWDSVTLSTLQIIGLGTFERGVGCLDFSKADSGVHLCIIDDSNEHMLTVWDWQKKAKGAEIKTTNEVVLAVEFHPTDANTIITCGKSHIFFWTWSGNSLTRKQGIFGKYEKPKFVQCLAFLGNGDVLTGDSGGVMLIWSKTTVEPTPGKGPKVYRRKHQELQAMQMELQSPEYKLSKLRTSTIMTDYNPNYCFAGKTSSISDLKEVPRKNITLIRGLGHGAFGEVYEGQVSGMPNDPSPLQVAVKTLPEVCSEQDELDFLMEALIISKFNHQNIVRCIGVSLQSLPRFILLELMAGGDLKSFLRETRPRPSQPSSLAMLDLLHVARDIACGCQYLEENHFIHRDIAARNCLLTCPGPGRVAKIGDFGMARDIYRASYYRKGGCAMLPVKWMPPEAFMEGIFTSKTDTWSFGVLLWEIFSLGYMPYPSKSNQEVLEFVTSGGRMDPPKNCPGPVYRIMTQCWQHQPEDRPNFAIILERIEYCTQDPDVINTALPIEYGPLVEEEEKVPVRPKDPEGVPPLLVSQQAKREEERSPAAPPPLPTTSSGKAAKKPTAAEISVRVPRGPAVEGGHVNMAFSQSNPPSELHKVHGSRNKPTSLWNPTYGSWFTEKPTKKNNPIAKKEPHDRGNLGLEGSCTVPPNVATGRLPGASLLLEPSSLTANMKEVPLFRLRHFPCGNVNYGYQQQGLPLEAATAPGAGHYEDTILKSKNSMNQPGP

DC50 [2] [nM] | Structure (SMILES) | IC50 [1] [µM]
50 to 500 | COc1cc(N2CCN(C(=O)CCNc3cccc4c3C(=O)N(C3CCC(=O)NC3=O)C4=O)CC2)ccc1Nc1ncc(Cl)c(Nc2ccccc2P(C)(C)=O)n1 (centres unmarked) [SIAIS1197057, 4-((3-(4-(4-((5-chloro-4-((2-(dimethylphosphoryl)phenyl)amino)pyrimidin-2-yl)amino)-3-methoxyphenyl)piperazin-1-yl)-3-oxopropyl)amino)-2-(2,6-dioxopiperidin-3-yl)isoindoline-1,3-dione] | 0.0177 ± 0.0096
1 to 50 | COc1cc(N2CCN(C(=O)CCCNc3cccc4c3C(=O)N(C3CCC(=O)NC3=O)C4=O)CC2)ccc1Nc1ncc(Cl)c(Nc2ccccc2P(C)(C)=O)n1 (centres unmarked) [SIAIS1197059, 4-((4-(4-(4-((5-chloro-4-((2-(dimethylphosphoryl)phenyl)amino)pyrimidin-2-yl)amino)-3-methoxyphenyl)piperazin-1-yl)-4-oxobutyl)amino)-2-(2,6-dioxopiperidin-3-yl)isoindoline-1,3-dione] | 0.0107 ± 0.0062
50 to 500 | COc1cc(N2CCN(C(=O)CCCCNc3cccc4c3C(=O)N(C3CCC(=O)NC3=O)C4=O)CC2)ccc1Nc1ncc(Cl)c(Nc2ccccc2P(C)(C)=O)n1 (centres unmarked) [SIAIS1197061, 4-((5-(4-(4-((5-chloro-4-((2-(dimethylphosphoryl)phenyl)amino)pyrimidin-2-yl)amino)-3-methoxyphenyl)piperazin-1-yl)-5-oxopentyl)amino)-2-(2,6-dioxopiperidin-3-yl)isoindoline-1,3-dione] | 0.008 ± 0.0044
50 to 500 | COc1cc(N2CCN(C(=O)CCCCCNc3cccc4c3C(=O)N(C3CCC(=O)NC3=O)C4=O)CC2)ccc1Nc1ncc(Cl)c(Nc2ccccc2P(C)(C)=O)n1 (centres unmarked) [SIAIS1197063, 4-((6-(4-(4-((5-chloro-4-((2-(dimethylphosphoryl)phenyl)amino)pyrimidin-2-yl)amino)-3-methoxyphenyl)piperazin-1-yl)-6-oxohexyl)amino)-2-(2,6-dioxopiperidin-3-yl)isoindoline-1,3-dione] | 0.0141 ± 0.0073
100 to 500 | COc1cc(N2CCN(C(=O)CCOCCNc3cccc4c3C(=O)N(C3CCC(=O)NC3=O)C4=O)CC2)ccc1Nc1ncc(Cl)c(Nc2ccccc2P(C)(C)=O)n1 (centres unmarked) [SIAIS1197065, 4-((2-(3-(4-(4-((5-chloro-4-((2-(dimethylphosphoryl)phenyl)amino)pyrimidin-2-yl)amino)-3-methoxyphenyl)piperazin-1-yl)-3-oxopropoxy)ethyl)amino)-2-(2,6-dioxopiperidin-3-yl)isoindoline-1,3-dione] | 0.0207 ± 0.0149
100 to 500 | COc1cc(N2CCN(C(=O)CCOCCOCCNc3cccc4c3C(=O)N(C3CCC(=O)NC3=O)C4=O)CC2)ccc1Nc1ncc(Cl)c(Nc2ccccc2P(C)(C)=O)n1 (centres unmarked) [SIAIS1197067, 4-((2-(2-(3-(4-(4-((5-chloro-4-((2-(dimethylphosphoryl)phenyl)amino)pyrimidin-2-yl)amino)-3-methoxyphenyl)piperazin-1-yl)-3-oxopropoxy)ethoxy)ethyl)amino)-2-(2,6-dioxopiperidin-3-yl)isoindoline-1,3-dione] | 0.0161 ± 0.0061
100 to 500 | COc1cc(N2CCN(C(=O)CCOCCOCCOCCNc3cccc4c3C(=O)N(C3CCC(=O)NC3=O)C4=O)CC2)ccc1Nc1ncc(C)c(Nc2ccccc2P(C)(C)=O)n1 (centres unmarked) [SIAIS1197069, 4-((2-(2-(2-(3-(4-(4-((4-((2-(dimethylphosphoryl)phenyl)amino)-5-methylpyrimidin-2-yl)amino)-3-methoxyphenyl)piperazin-1-yl)-3-oxopropoxy)ethoxy)ethoxy)ethyl)amino)-2-(2,6-dioxopiperidin-3-yl)isoindoline-1,3-dione] | 0.0223 ± 0.0182
100 to 500 | COc1cc(N2CCN(C(=O)CCOCCOCCOCCOCCOCCNc3cccc4c3C(=O)N(C3CCC(=O)NC3=O)C4=O)CC2)ccc1Nc1ncc(Cl)c(Nc2ccccc2P(C)(C)=O)n1 (centres unmarked) [SIAIS1197073, 4-((18-(4-(4-((5-chloro-4-((2-(dimethylphosphoryl)phenyl)amino)pyrimidin-2-yl)amino)-3-methoxyphenyl)piperazin-1-yl)-18-oxo-3,6,9,12,15-pentaoxaoctadecyl)amino)-2-(2,6-dioxopiperidin-3-yl)isoindoline-1,3-dione] | 0.0342 ± 0.0239
50 to 500 | COc1cc(N2CCN(C(=O)CCOCCOCCOCCC(=O)N[C@H](C(=O)N3C[C@H](O)C[C@H]3C(=O)NCc3ccc(-c4scnc4C)cc3)C(C)(C)C)CC2)ccc1Nc1ncc(Cl)c(Nc2ccccc2P(C)(C)=O)n1 [SIAIS1197081, (2S,4R)-1-((S)-2-(tert-butyl)-16-(4-(4-((5-chloro-4-((2-(dimethylphosphoryl)phenyl)amino)pyrimidin-2-yl)amino)-3-methoxyphenyl)piperazin-1-yl)-4,16-dioxo-7,10,13-trioxa-3-azahexadecanoyl)-4-hydroxy-N-(4-(4-methylthiazol-5-yl)benzyl)pyrrolidine-2-carboxamide] | 0.0325 ± 0.0198
50 to 500 | COc1cc(N2CCN(C(=O)CCOCCOCCOCCOCCC(=O)N[C@H](C(=O)N3C[C@H](O)C[C@H]3C(=O)NCc3ccc(-c4scnc4C)cc3)C(C)(C)C)CC2)ccc1Nc1ncc(Cl)c(Nc2ccccc2P(C)(C)=O)n1 [SIAIS1197083, (2S,4R)-1-((S)-2-(tert-butyl)-19-(4-(4-((5-chloro-4-((2-(dimethylphosphoryl)phenyl)amino)pyrimidin-2-yl)amino)-3-methoxyphenyl)piperazin-1-yl)-4,19-dioxo-7,10,13,16-tetraoxa-3-azanonadecanoyl)-4-hydroxy-N-(4-(4-methylthiazol-5-yl)benzyl)pyrrolidine-2-carboxamide] | 0.0499 ± 0.0308
20 to 100 | COc1cc(N2CCN(C(=O)CCOCCOCCOCCOCCOCCC(=O)N[C@H](C(=O)N3C[C@H](O)C[C@H]3C(=O)NCc3ccc(-c4scnc4C)cc3)C(C)(C)C)CC2)ccc1Nc1ncc(Cl)c(Nc2ccccc2P(C)(C)=O)n1 [SIAIS1197085, (2S,4R)-1-((S)-2-(tert-butyl)-22-(4-(4-((5-chloro-4-((2-(dimethylphosphoryl)phenyl)amino)pyrimidin-2-yl)amino)-3-methoxyphenyl)piperazin-1-yl)-4,22-dioxo-7,10,13,16,19-pentaoxa-3-azadocosanoyl)-4-hydroxy-N-(4-(4-methylthiazol-5-yl)benzyl)pyrrolidine-2-carboxamide] | 0.0625 ± 0.0392
50 to 500 | COc1cc(N2CCN(C(=O)COCCOCC(=O)N[C@H](C(=O)N3C[C@H](O)C[C@H]3C(=O)NCc3ccc(-c4scnc4C)cc3)C(C)(C)C)CC2)ccc1Nc1ncc(Cl)c(Nc2ccccc2P(C)(C)=O)n1 [SIAIS1197087, (2S,4R)-1-((S)-2-(2-(2-(2-(4-(4-((5-chloro-4-((2-(dimethylphosphoryl)phenyl)amino)pyrimidin-2-yl)amino)-3-methoxyphenyl)piperazin-1-yl)-2-oxoethoxy)ethoxy)acetamido)-3,3-dimethylbutanoyl)-4-hydroxy-N-(4-(4-methylthiazol-5-yl)benzyl)pyrrolidine-2-carboxamide] | 0.0106 ± 0.0024
1 to 50 | COc1cc(N2CCN(C(=O)CCC(=O)N[C@H](C(=O)N3C[C@H](O)C[C@H]3C(=O)NCc3ccc(-c4scnc4C)cc3)C(C)(C)C)CC2)ccc1Nc1ncc(Cl)c(Nc2ccccc2P(C)(C)=O)n1 [SIAIS1197145, (2S,4R)-1-((S)-2-(4-(4-(4-((5-chloro-4-((2-(dimethylphosphoryl)phenyl)amino)pyrimidin-2-yl)amino)-3-methoxyphenyl)piperazin-1-yl)-4-oxobutanamido)-3,3-dimethylbutanoyl)-4-hydroxy-N-(4-(4-methylthiazol-5-yl)benzyl)pyrrolidine-2-carboxamide] | 0.0085 ± 0.0056
20 to 100 | COc1cc(N2CCN(C(=O)CCCC(=O)N[C@H](C(=O)N3C[C@H](O)C[C@H]3C(=O)NCc3ccc(-c4scnc4C)cc3)C(C)(C)C)CC2)ccc1Nc1ncc(Cl)c(Nc2ccccc2P(C)(C)=O)n1 [SIAIS1197147, (2S,4R)-1-((S)-2-(5-(4-(4-((5-chloro-4-((2-(dimethylphosphoryl)phenyl)amino)pyrimidin-2-yl)amino)-3-methoxyphenyl)piperazin-1-yl)-5-oxopentanamido)-3,3-dimethylbutanoyl)-4-hydroxy-N-(4-(4-methylthiazol-5-yl)benzyl)pyrrolidine-2-carboxamide] | 0.0142 ± 0.0082
20 to 100 | COc1cc(N2CCN(C(=O)CCCCC(=O)N[C@H](C(=O)N3C[C@H](O)C[C@H]3C(=O)NCc3ccc(-c4scnc4C)cc3)C(C)(C)C)CC2)ccc1Nc1ncc(Cl)c(Nc2ccccc2P(C)(C)=O)n1 [SIAIS1197149, (2S,4R)-1-((S)-2-(6-(4-(4-((5-chloro-4-((2-(dimethylphosphoryl)phenyl)amino)pyrimidin-2-yl)amino)-3-methoxyphenyl)piperazin-1-yl)-6-oxohexanamido)-3,3-dimethylbutanoyl)-4-hydroxy-N-(4-(4-methylthiazol-5-yl)benzyl)pyrrolidine-2-carboxamide] | 0.0082 ± 0.0039
20 to 100 | COc1cc(N2CCN(C(=O)CCCCCC(=O)N[C@H](C(=O)N3C[C@H](O)C[C@H]3C(=O)NCc3ccc(-c4scnc4C)cc3)C(C)(C)C)CC2)ccc1Nc1ncc(Cl)c(Nc2ccccc2P(C)(C)=O)n1 [SIAIS1197151, (2S,4R)-1-((S)-2-(7-(4-(4-((5-chloro-4-((2-(dimethylphosphoryl)phenyl)amino)pyrimidin-2-yl)amino)-3-methoxyphenyl)piperazin-1-yl)-7-oxoheptanamido)-3,3-dimethylbutanoyl)-4-hydroxy-N-(4-(4-methylthiazol-5-yl)benzyl)pyrrolidine-2-carboxamide] | 0.0167 ± 0.0073
